#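 How tested: cells in 96-well plates exposed to compound for 48 hours at five concentrations. GI50: concentration for 50% inhibition of growth.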 Active and inactive are the calls of the source. Cut-off read from the data, not from the text of the source: active = GI50 up to about 1.1 µM and inactive = higher.
# What was measured:
# Test in all cases: inhibition of tumour cell growth, NCI panel, 48 h
# SK-MEL-2 = tested on: SK-MEL-2
# A498 = tested on: A498
# HCT-116 = tested on: HCT-116
# UO-31 = tested on: UO-31
# KM12 = tested on: KM12
# OVCAR-4 = tested on: OVCAR-4
# DU-145 = tested on: DU-145
# HOP-92 = tested on: HOP-92
# COLO 205 = tested on: COLO 205
# SK-MEL-28 = tested on: SK-MEL-28
# SK-OV-3 = tested on: SK-OV-3
# PC-3 = tested on: PC-3
# MDA-N = tested on: MDA-N
# LOX IMVI = tested on: LOX IMVI
# ACHN = tested on: ACHN
# A549 = tested on: A549
# SW-620 = tested on: SW-620
# EKVX = tested on: EKVX
# CCRF-CEM = tested on: CCRF-CEM
# NCI-H226 = tested on: NCI-H226
# Hs-578T = tested on: Hs-578T
# SN12C = tested on: SN12C
# IGROV-1 = tested on: IGROV-1
# NCI-H460 = tested on: NCI-H460
# UACC-62 = tested on: UACC-62
# SF-268 = tested on: SF-268
# M14 = tested on: M14
# Malme-3M = tested on: Malme-3M
# NCI/ADR-RES = tested on: NCI/ADR-RES
# OVCAR-8 = tested on: OVCAR-8
# MDA-MB-435 = tested on: MDA-MB-435
# OVCAR-5 = tested on: OVCAR-5
# RXF 393 = tested on: RXF 393
# K562 = tested on: K562
# UACC-257 = tested on: UACC-257
# SR = tested on: SR
# HCT-15 = tested on: HCT-15
# OVCAR-3 = tested on: OVCAR-3
# NCI-H522 = tested on: NCI-H522
# HT-29 = tested on: HT-29
# T47D = tested on: T47D
# RPMI-8226 = tested on: RPMI-8226
# MDA-MB-231 = tested on: MDA-MB-231
# SNB-19 = tested on: SNB-19
# U-251 = tested on: U-251
# NCI-H23 = tested on: NCI-H23
# 786-0 = tested on: 786-0
# SF-539 = tested on: SF-539
# SF-295 = tested on: SF-295
# TK-10 = tested on: TK-10
# SK-MEL-5 = tested on: SK-MEL-5
# HL-60 = tested on: HL-60
# CAKI-1 = tested on: CAKI-1
# HOP-62 = tested on: HOP-62
# MOLT-4 = tested on: MOLT-4
# HCC 2998 = tested on: HCC 2998
# MCF7 = tested on: MCF7
# SNB-75 = tested on: SNB-75
structure (smiles),measurement,setting,value
N#C/C(C(=O)Nc1ccccc1)=C(/N)N1CCCC1,GI50,SK-MEL-2,> 100 µM (inactive)
same,GI50,A498,> 100 µM (inactive)
same,GI50,HCT-116,> 100 µM (inactive)
same,GI50,UO-31,97.9 µM (inactive)
same,GI50,KM12,> 100 µM (inactive)
same,GI50,OVCAR-4,> 100 µM (inactive)
same,GI50,DU-145,> 100 µM (inactive)
same,GI50,HOP-92,> 100 µM (inactive)
same,GI50,COLO 205,> 100 µM (inactive)
same,GI50,SK-MEL-28,> 100 µM (inactive)
same,GI50,SK-OV-3,> 100 µM (inactive)
same,GI50,PC-3,> 100 µM (inactive)
same,GI50,MDA-N,> 100 µM (inactive)
same,GI50,LOX IMVI,> 100 µM (inactive)
same,GI50,ACHN,> 100 µM (inactive)
same,GI50,A549,> 100 µM (inactive)
same,GI50,SW-620,> 100 µM (inactive)
same,GI50,EKVX,72.3 µM (inactive)
same,GI50,CCRF-CEM,> 100 µM (inactive)
same,GI50,NCI-H226,> 100 µM (inactive)
same,GI50,Hs-578T,> 100 µM (inactive)
same,GI50,SN12C,> 100 µM (inactive)
same,GI50,IGROV-1,> 100 µM (inactive)
same,GI50,NCI-H460,> 100 µM (inactive)
same,GI50,UACC-62,> 100 µM (inactive)
same,GI50,SF-268,> 100 µM (inactive)
same,GI50,M14,> 100 µM (inactive)
same,GI50,Malme-3M,> 100 µM (inactive)
same,GI50,NCI/ADR-RES,> 100 µM (inactive)
same,GI50,OVCAR-8,> 100 µM (inactive)
same,GI50,MDA-MB-435,> 100 µM (inactive)
same,GI50,OVCAR-5,> 100 µM (inactive)
same,GI50,RXF 393,> 100 µM (inactive)
same,GI50,K562,> 100 µM (inactive)
same,GI50,UACC-257,> 100 µM (inactive)
same,GI50,SR,> 100 µM (inactive)
same,GI50,HCT-15,> 100 µM
same,GI50,OVCAR-3,> 100 µM (inactive)
same,GI50,NCI-H522,> 100 µM (inactive)
same,GI50,HT-29,88.1 µM (inactive)
same,GI50,T47D,35.2 µM (inactive)
same,GI50,RPMI-8226,> 100 µM (inactive)
same,GI50,MDA-MB-231,> 100 µM (inactive)
same,GI50,SNB-19,> 100 µM (inactive)
same,GI50,U-251,> 100 µM (inactive)
same,GI50,NCI-H23,> 100 µM (inactive)
same,GI50,786-0,> 100 µM (inactive)
same,GI50,SF-539,> 100 µM (inactive)
same,GI50,SF-295,> 100 µM (inactive)
same,GI50,TK-10,> 100 µM (inactive)
same,GI50,SK-MEL-5,> 100 µM (inactive)
same,GI50,HL-60,> 100 µM (inactive)
same,GI50,CAKI-1,> 100 µM (inactive)
same,GI50,HOP-62,> 100 µM (inactive)
same,GI50,MOLT-4,> 100 µM (inactive)
same,GI50,HCC 2998,> 100 µM (inactive)
O=C(CCCN1CC=C(n2c(=O)[nH]c3ccccc32)CC1)c1cccs1,GI50,SK-MEL-2,> 100 µM (inactive)
same,GI50,A498,> 100 µM (inactive)
same,GI50,HCT-116,> 100 µM (inactive)
same,GI50,UO-31,> 100 µM (inactive)
same,GI50,KM12,> 100 µM (inactive)
same,GI50,OVCAR-4,> 100 µM (inactive)
same,GI50,DU-145,> 100 µM (inactive)
same,GI50,HOP-92,> 100 µM (inactive)
same,GI50,COLO 205,> 100 µM (inactive)
same,GI50,SK-MEL-28,> 100 µM (inactive)
same,GI50,SK-OV-3,> 100 µM (inactive)
same,GI50,PC-3,93.3 µM (inactive)
same,GI50,MDA-N,> 100 µM (inactive)
same,GI50,LOX IMVI,> 100 µM (inactive)
same,GI50,ACHN,> 100 µM (inactive)
same,GI50,MCF7,11.8 µM (inactive)
same,GI50,A549,> 100 µM (inactive)
same,GI50,SW-620,> 100 µM (inactive)
same,GI50,EKVX,> 100 µM (inactive)
same,GI50,CCRF-CEM,> 100 µM (inactive)
same,GI50,NCI-H226,> 100 µM (inactive)
same,GI50,SN12C,> 100 µM (inactive)
same,GI50,IGROV-1,> 100 µM (inactive)
same,GI50,NCI-H460,63.5 µM (inactive)
same,GI50,UACC-62,> 100 µM (inactive)
same,GI50,SF-268,> 100 µM (inactive)
same,GI50,M14,> 100 µM (inactive)
same,GI50,Malme-3M,> 100 µM (inactive)
same,GI50,NCI/ADR-RES,> 100 µM (inactive)
same,GI50,OVCAR-8,> 100 µM (inactive)
same,GI50,MDA-MB-435,> 100 µM (inactive)
same,GI50,OVCAR-5,> 100 µM (inactive)
same,GI50,RXF 393,> 100 µM (inactive)
same,GI50,K562,66.2 µM (inactive)
same,GI50,UACC-257,> 100 µM (inactive)
same,GI50,SR,> 100 µM (inactive)
same,GI50,HCT-15,> 100 µM
same,GI50,OVCAR-3,> 100 µM (inactive)
same,GI50,NCI-H522,> 100 µM (inactive)
same,GI50,HT-29,52.4 µM (inactive)
same,GI50,T47D,> 100 µM (inactive)
same,GI50,RPMI-8226,> 100 µM (inactive)
same,GI50,MDA-MB-231,> 100 µM (inactive)
same,GI50,SNB-19,> 100 µM (inactive)
same,GI50,U-251,> 100 µM (inactive)
same,GI50,NCI-H23,> 100 µM (inactive)
same,GI50,786-0,> 100 µM (inactive)
same,GI50,SNB-75,> 100 µM (inactive)
same,GI50,SF-539,> 100 µM (inactive)
same,GI50,SF-295,> 100 µM (inactive)
same,GI50,TK-10,67.5 µM (inactive)
same,GI50,SK-MEL-5,> 100 µM (inactive)
same,GI50,HL-60,> 100 µM (inactive)
same,GI50,CAKI-1,> 100 µM (inactive)
same,GI50,HOP-62,> 100 µM (inactive)
same,GI50,MOLT-4,45.6 µM (inactive)
same,GI50,HCC 2998,> 100 µM (inactive)
CC(=O)O[C@H]1C(=O)[C@@]2(C)C(C(OC(=O)c3ccccc3)[C@]3(O)CC(OC(=O)[C@H](OC(=O)CCC(=O)O)C(NC(=O)c4ccccc4)c4ccccc4)C(C)=C1C3(C)C)C1(OC(C)=O)COC1C[C@@H]2O (stereo partly drawn),GI50,A498,< 0.0118 µM (active)
same,GI50,HCT-116,< 0.01 µM (active)
same,GI50,OVCAR-4,31.8 µM (inactive)
same,GI50,HOP-92,0.656 µM (active)
same,GI50,PC-3,< 0.0128 µM (active)
same,GI50,MDA-N,< 0.01 µM (active)
same,GI50,LOX IMVI,< 0.0105 µM (active)
same,GI50,MCF7,< 0.01 µM (active)
same,GI50,A549,0.0366 µM (active)
same,GI50,CCRF-CEM,< 0.01 µM (active)
same,GI50,NCI-H226,0.0122 µM (active)
same,GI50,Hs-578T,< 0.0175 µM (active)
same,GI50,IGROV-1,< 0.0119 µM (active)
same,GI50,NCI-H460,< 0.0132 µM (active)
same,GI50,UACC-62,< 0.0113 µM (active)
same,GI50,SF-268,0.0252 µM (active)
same,GI50,MDA-MB-435,< 0.01 µM (active)
same,GI50,HCT-15,0.995 µM
same,GI50,NCI-H522,< 0.01 µM (active)
same,GI50,T47D,0.0272 µM (active)
same,GI50,RPMI-8226,< 0.01 µM (active)
same,GI50,SNB-19,0.0506 µM (active)
same,GI50,NCI-H23,0.0193 µM (active)
same,GI50,SF-539,< 0.01 µM (active)
same,GI50,TK-10,0.136 µM (active)
same,GI50,SK-MEL-5,< 0.0159 µM (active)
same,GI50,HL-60,< 0.01 µM (active)
same,GI50,CAKI-1,5.3 µM (inactive)
same,GI50,MOLT-4,< 0.0153 µM (active)
same,GI50,HCC 2998,0.0302 µM (active)
